Data on three molecules can be found in ChEMBL document CHEMBL4819072, “Radioligand and computational insight in structure - Activity relationship of saccharin derivatives being ipsapirone and revospirone analogues” (Bioorg Med Chem Lett, 2021).

For assay [1], the target named is T1, 5-hydroxytryptamine receptor 1A (Homo sapiens, UniProt P08908).
T1 sequence (P08908 whole entry): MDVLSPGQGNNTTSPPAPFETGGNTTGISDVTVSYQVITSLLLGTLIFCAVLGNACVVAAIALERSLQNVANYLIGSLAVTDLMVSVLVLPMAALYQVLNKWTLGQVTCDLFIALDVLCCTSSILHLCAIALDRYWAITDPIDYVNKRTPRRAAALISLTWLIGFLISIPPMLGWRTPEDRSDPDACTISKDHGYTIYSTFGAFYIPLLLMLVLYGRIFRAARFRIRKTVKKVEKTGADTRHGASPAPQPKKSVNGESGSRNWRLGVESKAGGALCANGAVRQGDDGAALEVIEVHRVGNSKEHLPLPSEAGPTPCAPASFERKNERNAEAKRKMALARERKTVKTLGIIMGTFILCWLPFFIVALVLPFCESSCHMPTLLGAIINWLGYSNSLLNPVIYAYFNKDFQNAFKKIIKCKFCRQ
Description: Displacement of [3H]-[…] from human 5-HT1AR expressed in human HEK293 cells. It counts as cell-based. Background: Displacement assays read how much labelled ligand stays bound in the presence of the test substance.

In assay [2] the target is 5-hydroxytryptamine receptor 7 (Homo sapiens, UniProt P34969). Description: Displacement of [3H]-5CT from human 5-HT7R expressed in human HEK293 cells. It counts as cell-based.
Chain of 5-hydroxytryptamine receptor 7 (P34969 whole entry): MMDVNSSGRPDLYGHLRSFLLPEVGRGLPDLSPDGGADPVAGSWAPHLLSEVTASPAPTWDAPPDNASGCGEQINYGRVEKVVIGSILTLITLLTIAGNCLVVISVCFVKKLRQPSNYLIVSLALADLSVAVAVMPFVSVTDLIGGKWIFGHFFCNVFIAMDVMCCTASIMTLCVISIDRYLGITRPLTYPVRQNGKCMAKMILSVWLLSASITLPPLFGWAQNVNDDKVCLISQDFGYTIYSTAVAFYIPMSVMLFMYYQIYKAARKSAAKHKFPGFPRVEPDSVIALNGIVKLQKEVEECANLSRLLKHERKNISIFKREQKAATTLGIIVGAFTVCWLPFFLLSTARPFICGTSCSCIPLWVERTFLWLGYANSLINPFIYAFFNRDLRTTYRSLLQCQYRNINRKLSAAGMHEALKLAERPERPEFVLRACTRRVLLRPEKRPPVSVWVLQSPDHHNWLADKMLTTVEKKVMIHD
Assay [3] concerns the target 5-hydroxytryptamine receptor 6 (Homo sapiens, UniProt P50406). Put plainly: Displacement of [3H]-LSD from human 5-HT6R expressed in human HEK293 cells. It counts as cell-based.
Assay [4] has as its target T2, Adrenergic receptor alpha-1 (Homo sapiens, UniProt P35348+P25100+P35368).
T2 sequence (P35348 whole entry): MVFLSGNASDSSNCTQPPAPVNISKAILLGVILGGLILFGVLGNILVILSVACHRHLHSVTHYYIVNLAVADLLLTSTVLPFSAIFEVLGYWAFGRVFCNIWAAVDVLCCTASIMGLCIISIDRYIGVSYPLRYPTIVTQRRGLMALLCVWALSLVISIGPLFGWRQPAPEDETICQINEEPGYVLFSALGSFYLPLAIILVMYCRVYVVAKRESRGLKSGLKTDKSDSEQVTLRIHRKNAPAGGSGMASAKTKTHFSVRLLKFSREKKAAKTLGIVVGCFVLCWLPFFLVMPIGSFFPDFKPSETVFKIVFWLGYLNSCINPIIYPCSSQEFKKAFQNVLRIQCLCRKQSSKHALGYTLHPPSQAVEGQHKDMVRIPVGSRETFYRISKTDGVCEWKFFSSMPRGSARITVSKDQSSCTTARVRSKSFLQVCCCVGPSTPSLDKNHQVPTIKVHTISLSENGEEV
T2 sequence (P25100 whole entry): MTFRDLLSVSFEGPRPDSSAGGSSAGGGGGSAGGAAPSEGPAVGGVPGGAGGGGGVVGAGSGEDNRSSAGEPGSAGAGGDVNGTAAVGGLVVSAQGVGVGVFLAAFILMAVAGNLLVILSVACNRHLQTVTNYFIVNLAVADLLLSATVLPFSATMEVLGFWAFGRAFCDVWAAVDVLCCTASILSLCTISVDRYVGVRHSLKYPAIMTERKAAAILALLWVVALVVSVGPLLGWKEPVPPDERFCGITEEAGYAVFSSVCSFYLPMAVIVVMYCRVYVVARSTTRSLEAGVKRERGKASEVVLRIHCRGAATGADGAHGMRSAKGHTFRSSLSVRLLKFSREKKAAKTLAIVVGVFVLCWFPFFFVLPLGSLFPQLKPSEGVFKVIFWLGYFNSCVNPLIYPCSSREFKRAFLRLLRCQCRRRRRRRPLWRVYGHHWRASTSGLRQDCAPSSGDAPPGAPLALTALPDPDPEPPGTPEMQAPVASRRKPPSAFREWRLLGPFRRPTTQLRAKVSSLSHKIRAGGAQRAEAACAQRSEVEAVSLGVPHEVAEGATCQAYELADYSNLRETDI
T2 sequence (P35368 whole entry): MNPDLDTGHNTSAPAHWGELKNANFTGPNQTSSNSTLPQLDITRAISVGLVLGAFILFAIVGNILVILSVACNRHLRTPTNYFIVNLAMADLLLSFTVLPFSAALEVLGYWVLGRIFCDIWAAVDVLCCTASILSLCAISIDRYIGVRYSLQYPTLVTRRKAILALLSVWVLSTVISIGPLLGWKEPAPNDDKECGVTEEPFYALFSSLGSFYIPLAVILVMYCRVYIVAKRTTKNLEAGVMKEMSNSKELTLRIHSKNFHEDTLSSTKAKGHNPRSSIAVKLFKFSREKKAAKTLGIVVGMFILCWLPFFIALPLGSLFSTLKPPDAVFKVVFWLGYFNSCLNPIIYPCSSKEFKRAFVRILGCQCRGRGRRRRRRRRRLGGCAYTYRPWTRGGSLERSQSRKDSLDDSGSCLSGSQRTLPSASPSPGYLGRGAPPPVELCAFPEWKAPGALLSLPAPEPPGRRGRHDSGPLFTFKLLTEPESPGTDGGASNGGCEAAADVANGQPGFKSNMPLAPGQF
Description: Binding affinity to human adrenergic receptor alpha1. It counts as protein assay.

For assay [5], the target named is 5-hydroxytryptamine receptor 2A (Homo sapiens, UniProt P28223). Put plainly: Displacement of [3H]-ketanserin from human 5-HT2AR expressed in CHO cells. It counts as cell-based.
Chain of 5-hydroxytryptamine receptor 2A (P28223 whole entry): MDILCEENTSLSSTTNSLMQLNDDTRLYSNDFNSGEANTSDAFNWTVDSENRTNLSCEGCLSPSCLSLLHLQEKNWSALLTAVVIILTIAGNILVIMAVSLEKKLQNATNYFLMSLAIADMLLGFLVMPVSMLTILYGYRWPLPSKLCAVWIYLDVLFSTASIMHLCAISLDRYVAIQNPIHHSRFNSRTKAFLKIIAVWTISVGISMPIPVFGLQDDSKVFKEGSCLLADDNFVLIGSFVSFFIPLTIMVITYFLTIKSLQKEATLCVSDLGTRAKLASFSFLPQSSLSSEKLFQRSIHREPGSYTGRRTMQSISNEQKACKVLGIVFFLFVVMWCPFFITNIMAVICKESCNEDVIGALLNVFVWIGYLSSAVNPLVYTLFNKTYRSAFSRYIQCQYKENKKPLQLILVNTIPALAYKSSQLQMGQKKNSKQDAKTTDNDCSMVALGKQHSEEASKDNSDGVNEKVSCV
Assay [6] concerns the target T3, 5-hydroxytryptamine receptor 2C (Homo sapiens, UniProt P28335).
T3 sequence (P28335 whole entry): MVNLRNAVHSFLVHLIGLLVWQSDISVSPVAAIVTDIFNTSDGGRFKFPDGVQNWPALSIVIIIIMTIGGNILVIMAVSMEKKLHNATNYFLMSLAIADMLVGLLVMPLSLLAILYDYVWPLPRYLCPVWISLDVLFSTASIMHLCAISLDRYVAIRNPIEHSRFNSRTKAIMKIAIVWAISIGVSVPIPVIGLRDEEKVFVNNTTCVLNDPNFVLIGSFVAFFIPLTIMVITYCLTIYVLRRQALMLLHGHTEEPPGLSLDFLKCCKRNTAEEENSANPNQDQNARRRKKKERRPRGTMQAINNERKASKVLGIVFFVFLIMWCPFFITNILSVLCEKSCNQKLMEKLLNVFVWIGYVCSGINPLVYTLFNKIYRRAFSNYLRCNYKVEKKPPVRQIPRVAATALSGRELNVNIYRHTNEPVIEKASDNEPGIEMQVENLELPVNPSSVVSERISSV
Description: Binding affinity to human 5-HT2C.

Assay [7] deals with T4, D(4) dopamine receptor (Homo sapiens, UniProt P21917).
T4 sequence (P21917 whole entry): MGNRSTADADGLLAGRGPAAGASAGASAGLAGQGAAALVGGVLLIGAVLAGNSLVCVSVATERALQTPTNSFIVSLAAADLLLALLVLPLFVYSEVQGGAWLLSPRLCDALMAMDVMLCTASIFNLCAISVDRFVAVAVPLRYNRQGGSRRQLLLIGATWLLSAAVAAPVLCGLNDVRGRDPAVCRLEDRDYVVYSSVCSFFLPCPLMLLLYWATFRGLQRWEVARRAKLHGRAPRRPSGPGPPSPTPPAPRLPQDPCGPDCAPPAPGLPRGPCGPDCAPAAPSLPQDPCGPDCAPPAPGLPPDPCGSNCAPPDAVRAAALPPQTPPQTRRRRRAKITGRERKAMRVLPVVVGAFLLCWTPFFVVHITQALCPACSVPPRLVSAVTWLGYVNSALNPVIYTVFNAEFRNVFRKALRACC
Put plainly: Binding affinity to human D4R.

The target of assay [8] is D(1A) dopamine receptor (Homo sapiens, UniProt P21728). Description: Binding affinity to human D1R.
Chain of D(1A) dopamine receptor (P21728 whole entry): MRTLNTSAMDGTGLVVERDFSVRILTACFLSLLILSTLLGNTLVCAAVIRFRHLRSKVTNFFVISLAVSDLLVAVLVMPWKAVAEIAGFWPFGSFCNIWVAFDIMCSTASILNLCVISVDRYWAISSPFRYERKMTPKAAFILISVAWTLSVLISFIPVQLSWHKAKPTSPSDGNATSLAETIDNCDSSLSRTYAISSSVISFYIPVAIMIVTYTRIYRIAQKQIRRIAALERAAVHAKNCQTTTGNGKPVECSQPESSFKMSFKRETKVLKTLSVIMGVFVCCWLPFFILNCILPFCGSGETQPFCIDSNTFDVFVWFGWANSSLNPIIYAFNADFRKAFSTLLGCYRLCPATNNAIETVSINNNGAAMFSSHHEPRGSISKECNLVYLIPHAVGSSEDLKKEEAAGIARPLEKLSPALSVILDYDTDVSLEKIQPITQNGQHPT
The target of assay [9] is T5, 5-hydroxytryptamine receptor 1A (Rattus norvegicus, UniProt P19327).
T5 sequence (P19327 whole entry): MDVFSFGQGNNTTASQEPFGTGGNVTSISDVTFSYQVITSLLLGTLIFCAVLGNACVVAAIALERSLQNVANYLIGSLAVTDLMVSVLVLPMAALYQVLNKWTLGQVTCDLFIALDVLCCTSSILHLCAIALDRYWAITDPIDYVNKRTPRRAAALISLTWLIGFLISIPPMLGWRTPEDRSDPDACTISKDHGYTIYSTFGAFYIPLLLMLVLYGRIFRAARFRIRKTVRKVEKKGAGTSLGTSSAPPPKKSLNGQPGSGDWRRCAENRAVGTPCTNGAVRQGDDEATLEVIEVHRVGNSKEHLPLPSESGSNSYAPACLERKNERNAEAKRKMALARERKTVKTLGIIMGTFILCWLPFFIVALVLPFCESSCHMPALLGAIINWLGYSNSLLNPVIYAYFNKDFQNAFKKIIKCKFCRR
Description: Displacement of [3H]-[…] from Wistar rat frontal region 5-HT1AR incubated for 30 mins. The assay is classed as tissue-based, Frontal lobe.

For assay [10], the target named is D(2) dopamine receptor (Rattus norvegicus, UniProt P61169). Description: Displacement of [3H]-spiperone from DRD2 in rat striatum incubated for 45 mins by liquid scintillation counting. The assay is classed as tissue-based.
Chain of D(2) dopamine receptor (P61169 whole entry): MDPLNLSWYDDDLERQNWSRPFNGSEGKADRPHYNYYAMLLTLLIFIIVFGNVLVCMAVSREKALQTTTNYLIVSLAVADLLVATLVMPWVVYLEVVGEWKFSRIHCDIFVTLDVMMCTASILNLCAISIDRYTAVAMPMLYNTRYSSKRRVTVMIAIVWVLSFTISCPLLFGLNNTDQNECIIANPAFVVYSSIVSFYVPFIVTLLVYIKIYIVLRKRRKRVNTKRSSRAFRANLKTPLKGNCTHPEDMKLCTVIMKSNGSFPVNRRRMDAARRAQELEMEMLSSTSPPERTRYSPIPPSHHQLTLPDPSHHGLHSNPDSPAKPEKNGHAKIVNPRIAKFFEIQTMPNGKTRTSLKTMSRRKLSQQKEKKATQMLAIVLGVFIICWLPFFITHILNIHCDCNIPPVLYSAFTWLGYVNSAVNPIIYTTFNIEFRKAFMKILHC

Where only a bound is given, the exact number is not on record here.

Chain of 5-hydroxytryptamine receptor 6 (P50406 whole entry): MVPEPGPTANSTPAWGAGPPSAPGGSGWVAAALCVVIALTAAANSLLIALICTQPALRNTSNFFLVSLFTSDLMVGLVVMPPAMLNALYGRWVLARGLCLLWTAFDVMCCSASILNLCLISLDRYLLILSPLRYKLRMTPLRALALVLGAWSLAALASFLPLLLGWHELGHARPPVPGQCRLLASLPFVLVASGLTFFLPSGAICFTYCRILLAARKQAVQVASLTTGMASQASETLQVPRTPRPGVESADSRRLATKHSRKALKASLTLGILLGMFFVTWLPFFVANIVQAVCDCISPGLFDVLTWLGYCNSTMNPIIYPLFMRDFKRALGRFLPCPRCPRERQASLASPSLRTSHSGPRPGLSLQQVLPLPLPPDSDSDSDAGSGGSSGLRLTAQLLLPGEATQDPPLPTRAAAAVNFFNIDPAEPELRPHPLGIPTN

Turning to `O=C1c2ccccc2S(=O)(=O)N1CCCCN1CCN(c2ncccn2)CC1` [IPSAPIRONE], the Ki (commonly the dissociation constant of the complex between target and ligand, obtained from inhibition or displacement) in assay [1] is 7.9 nM; in assay [2], 1410 nM; in assay [3], 16800 nM; in [4], 229 nM; in [5], 15000 nM.
With `O=C1c2ccccc2S(=O)(=O)N1CCCN1CCN(c2cccc(C(F)(F)F)c2)CC1`, the Ki in [1] was 400 nM; in assay [5], 700 nM; in [6], greater than 5000 nM.
As to `O=C1c2ccccc2S(=O)(=O)N1CCCCN1CCN(c2cccc(C(F)(F)F)c2)CC1`, the Ki is 100 nM in assay [1]; 1500 nM in [4]; greater than 5000 nM in [7]; 2250 nM in [5]; greater than 5000 nM in assay [6]; greater than 5000 nM in assay [8]. Also, the Ki in assay [9] is 100 nM; in assay [10] it was 2250 nM.
